This note sets out measurements from EP0268178A1, “Pyrrolo-benzimidazoles, medicaments containing these compounds and process for their preparation” (Dr. Karl Thomae GmbH, priority 1986, dated 1988).

The assay has as its system narkotisierten Katze. Description: Blood-pressure-lowering and positive inotropic effect in the anaesthetised cat. The format is in vivo, Katzen. Particulars: mean of 2 cats; for diastol. Blutdruckänderung in mmHg: anaesthetised cats (Pentobarbital-Natrium), 0,3 mg/kg i.v., Aorta abdominalis; for Zunahme von dp/dt in %: dp/dt max from left ventricular pressure. As for the experimental part:
1. Bestimmung der blutdrucksenkenden und ositiv inotropen Wirkung an der narkotisierten Katze:
Die Untersuchungen wurden an Katzen durchgeführt, die mit Pentobarbital-Natrium (40 mg/kg i.p. + 8 mg/kg/Stunde) narkotisiert waren. Die Tiere atmeten spontan. Der arterielle Blutdruck wurde in der Aorta abdominalis mit einem StathamDruckwandler (P 23 Dc) gemessen. Für die Erfassung der positiv inotropen Wirkung wurde mit einem Kathetertipmanometer (Millar PC-350 A) der Druck in der linken Herzkammer gemessen. Daraus wurde der Kontraktilitätsparameter dp/dt max mittels eines Analogdifferenzierers gewonnen. Die zu untersuchende Substanz wurde in eine Vena femoralis injiziert. Als Lösungsmittel diente Polydiol 200. Die Substanz wurde an 2 Katzen geprüft, Dosis 0,3 mg/kg i.v..

The mark [1] stands for this setting: anaesthetised cats, 0,3 mg/kg i.v.

Each structure is given as a SMILES string. A value given as a limit tells only on which side of the number the result lay.

In the case of `CCN1C(=O)C(C)(C)c2cc3[nH]c(-c4ocnc4C)nc3cc21` [D, 5-Äthyl-7,7-dimethyl-2-(4-methyl-oxazol-5-yl)-6,7-dihydro-3H,5H-pyrrolo[2,3-f]benzimidazol-B-on], the “diastol. Blutdruckänderung in mmHg” value is reported as -31 mmHg. Further, under setting [1], the “Wirkungsdauer (Halbwertszeit)” value came out at 7 Minuten and the “Zunahme von dp/dt in %” value was “+50%”.

Turning to `CCN1C(=O)C(C)(C)c2cc3[nH]c(-c4ccncc4)nc3cc21` [A, 5-Äthyl-7,7-dimethyl-2-(4-pyridyl)-6,7-dihyro-3H,5H-pyrrolo[2,3-f]benzimidazol-6-on], the “diastol. Blutdruckänderung in mmHg” value was -33 mmHg. Besides, under setting [1], the “Wirkungsdauer (Halbwertszeit)” value is recorded as greater than 80 Minuten and the “Zunahme von dp/dt in %” value was “+55%”.

For `CCN1C(=O)C(C)(C)c2cc3[nH]c(-c4ccc(S(C)(=O)=O)cc4)nc3cc21` [C, 5-Äthyl-7,7-dimethyl-2-(4-methylsulfonyl-phenyl)-6,7-dihydro-3H,5H-pyrrolo[2,3-f]benzimidazol-6-on], the “diastol. Blutdruckänderung in mmHg” value is on record as -16 mmHg. For the same molecule, under setting [1], the “Wirkungsdauer (Halbwertszeit)” value was greater than 60 Minuten, the “Zunahme der Herzfrequenz” value is “+12%” and the “Zunahme von dp/dt in %” value is on record as “+91%”.

For the molecule `CCN1C(=O)C(C)(C)c2cc3[nH]c(-c4ccco4)nc3cc21` [B, 5-Äthyl-7,7-dimethyl-2-(2-furyl)-6,7-dihydro-3H,5H-pyrrolo[2,3-f]benzimidazol-6-on], the “diastol. Blutdruckänderung in mmHg” value is -31 mmHg. For the same molecule, under setting [1], the “Wirkungsdauer (Halbwertszeit)” value amounted to 26 Minuten and the “Zunahme von dp/dt in %” value is “+49%”.
